In assay [1] the test system is PAF-induced hypotension. As to conditions: rat; for decrease in blood pressure: within 10 sec. The procedure: Male Wistar rats, weighing approximately 300 gm, are anesthetized and their carotid arteries cannulated to enable their diastolic and systolic arterial blood pressure measurements to be recorded. PAF is then administered intravenously at either 100 or 500 ng/kg, and the blood pressure drop (within 10 sec.) and recovery time required to reach the pre-injection blood pressure level are measured. […] In order to measure the effectiveness of a compound for both the inhibition of blood pressure decreases and shortening of the recovery time, the test compound is administered intravenously over a range of between 5 and 7 dosage levels (1 or 2 test animals per dose) and between 1 and 5 minutes prior to the introduction of PAF to generate an ED50.

Assay [2] relates to PAF-mediated extravasation. Kind of assay: PAF-induced Extravasation test (Test C). The class given is in vivo, guinea pigs. As to conditions: Cavia porcellus, po, read-out: Test C ED50.
The test system of assay [3] is PAF-mediated bronchoconstriction. Kind of assay: PAF-induced Pulmonary Inflation Pressure (PIP) Increase test (Test B). As to conditions: Cavia porcellus, po, read-out: Test B ED50. The format is in vivo, guinea pigs. As to the method:
Furthermore, in view of their usefulness as PAF receptor antagonists, the compounds of formula I have been found useful as inhibitors of PAF-mediated bronchoconstriction, which property was evaluated by the PAF-induced Pulmonary Inflation Pressure (PIP) Increase test (Test B) as follows:
Male guinea pigs, weighing between 300 and 400 gm, are anesthetized, after which time trachea tube, carotid and jugular catheters are inserted. The test animal is then force ventilated employing a small animal Harvard respirator and the resistance to lung inflation (PIP) is measured utilizing a pressure transducer and recorder. The test compound is administered orally at 30 minutes prior to, intravenously (jugular) at 5 minutes prior to, or intraarterially at 1 to 5 minutes prior to the introduction of PAF. […] Any blood pressure measurements taken are recorded from a transducer attached to the carotid catheter. […] A reading at 15 minutes after the administration of PAF is termed the endpoint PIP. The effect of the test compound on the PIP response is determined by the difference between the percent increase in maximal PIP over baseline for the test animal to which has been administered PAF and the test compound compared to the test animal to which only PAF has been administered to generate an ED 5 C (dose needed to effect a 50% response).

Assay [4] addresses T1, Human Platelet PAF Receptor (Homo sapiens, UniProt P25105).
T1 construct: endogenous in cells; host or cells: washed platelets from the blood of healthy human donors
Kind of assay: Human Platelet PAF Receptor Assay test (Test A). The format is binding. As to the method:
Human blood is obtained by venipuncture of healthy, human donors into an anti-coagulant mixture containing 3.15% of trisodium citrate and 20 μg/ml of Prostaglandin I2 (PGI2) in a ratio of blood to anti-coagulant of 9:1. Platelet rich plama (PRP) is prepared by centrifugation (250×g) of the blood for 20 minutes at room temperature. The PRP is then centrifuged (900×g) for 10 minutes at room temperature and the platelet pellet is washed two times with Tris-Tyrode's (TT) solution having a pH of 7.4 and containing 0.25% bovine serum albumin (BSA), and to which has been added PGI2 at a final concentration of […]. The platelets are resuspended at […] in TT/BSA containing 1.4 mM CaCl2.2H2 O and 0.7 mM MgCl2.6H2 O. All of the tests are conducted in duplicate and each of the test compounds is evaluated at concentrations of 100, 50, 1 and 0.1 μM. […]
Each mixture is allowed to incubate at room temperature for one hour, after which time the reaction is terminated by the addition of 500 μl of ice cold TT/BSA and centrifugation (900×g) at 4° C. for 10 minutes. […] An additional 2 ml. of Scintiverse II is then added to the vials and, after mixing, the vials are counted for 1 minute in a liquid scintillation spectrometer. The amount of specific binding is calculated as the difference in cpm between the total bound (^3 H)-PAF and non-specifically bound (^3 H)-PAF. […]

Assay [5] deals with PAF-induced human platelet aggregation. Kind of assay: Platelet Aggregation Inhibition Assay test (PAIA test). The class given is cell-based. As to conditions: C-16 PAF 0.1 μM or 0.01 μM; human platelet rich plasma. The procedure: All of the compounds of formula I, as well as their pharmaceutically acceptable acid addition salts, are useful as platelet activating factor inhibitors as indicated by their ability to inhibit platelet activating factor (PAF)-induced human platelet aggregation in vitro according to the Platelet Aggregation Inhibition Assay test (PAIA test) as follows:
Human subjects are kept aspirin free for one week and fasted overnight. Platelet rich plasma (PRP) is prepared by centrifugation (200×g.) of freshly drawn blood, anti-coagulated within 0.38% sodium citrate (final concentration). Platelet count is adjusted to 250,000 per μl using platelet poor plasma (PPP) obtained by a second centrifugation (700×g.) of the blood sample. An aliquot (0.38 ml) of the PRP is dispensed into cuvettes and maintained at room temperature (22° C.) until used (but for not more than two hours). […] The aggregation response is quantitated by determining the area under the curve (AUC). The AUC calculated for the inducing agent alone is considered to be one hundred percent. The potential percent inhibition of the aggregation response is determined by dividing the AUC generated in the presence of the compound by the AUC of the inducing agent alone, multiplying by 100 and then subtracting from 100.

The text below walks through data of US4914096A, “6-aryl-substituted-4H-thieno(2,3-e)(1,2,4)triazolo(3,4-c)(1,4)diazepines” (priority 1989, dated 1990).

Read-outs that look alike come from different tables or passages of the source.

T1 sequence (P25105 whole entry): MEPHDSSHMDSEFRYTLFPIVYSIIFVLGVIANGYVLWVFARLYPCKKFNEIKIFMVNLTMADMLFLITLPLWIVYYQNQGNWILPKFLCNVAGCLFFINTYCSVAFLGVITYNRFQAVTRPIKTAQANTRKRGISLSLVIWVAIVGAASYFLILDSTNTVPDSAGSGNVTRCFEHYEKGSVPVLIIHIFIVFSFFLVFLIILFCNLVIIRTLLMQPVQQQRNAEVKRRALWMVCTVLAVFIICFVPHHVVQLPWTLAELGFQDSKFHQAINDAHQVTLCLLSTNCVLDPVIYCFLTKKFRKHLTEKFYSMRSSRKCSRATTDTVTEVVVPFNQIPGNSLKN

As for “1-O-alkyl-2-acetyl-sn-glyceryl-3-phosphoryl-choline [PAF]”, the “decrease in blood pressure” value in assay [1] (100 ng/kg i.v.) is listed as 30%; in assay [1] (500 ng/kg i.v.), 52%. Further, in assay [1] (500 ng/kg i.v., to pre-injection blood pressure level), the recovery time turned out to be 10 min.

What is called ED50 is the dose at which the effect has come halfway, by size or by number of responders. One may read the IC50 as the concentration that inhibits the measured activity by half. As for `COc1cc(CCc2ccc(C3=NCc4nnc(C)n4-c4sccc43)cc2)cc(OC)c1OC` [Example 1, 1-methyl-6-[4-[2-(3,4,5-trimethoxyphenyl)ethyl]phenyl]-4H-thieno[2,3-e][1,2,4]triazolo[3,4-c][1,4]diazepine], the values for the ED50 in assay [2] and in assay [3] were 0.5 mg/kg and 0.8 mg/kg, respectively. Moreover, the IC50 stood at 0.22 µM in assay [4] and 12 µM in assay [5].
